Measured values from paper PMC8901179 (Journal of medicinal chemistry, 2019).

Assays:
Bmal1-dLuc U2OS cells [1] = assay: Cell-based circadian assay; details: for fold more potent than longdaysin (period lengthening): relative to longdaysin
374 kinases = assay: Profiling toward 374 kinases; type: biochemical; details: 5 μM compound
mouse behavioral rhythms [2] = details: cited from earlier work
mouse behavioral rhythms [3] = assay: Circadian behavior measurement, infusion into the lateral ventricle; type: in vivo, mice; details: 1 mM infusion, constant darkness
Bmal1-dLuc U2OS cells [4] = details: cited from earlier work

SMILES	period lengthening activity (in words) (Bmal1-dLuc U2OS cells [1])	fold more potent than longdaysin (period lengthening) (Bmal1-dLuc U2OS cells [1])	other results
CC(C)n1cnc2c(NCc3cccc(C(F)(F)F)c3)nc(NCCN3CCOCC3)nc21 [6f, 9-Isopropyl-N2-(2-morpholinoethyl)-N6-(3-(trifluoromethyl)-benzyl)-9H-purine-2,6-diamine]	decreased activity	–	–
CC(C)n1cnc2c(NCc3cccc(C(F)(F)F)c3)nc(NCCN(C)C)nc21 [6a, N2-(2-(Dimethylamino)ethyl)-9-isopropyl-N6-(3-(trifluoromethyl)benzyl)-9H-purine-2,6-diamine]	–	~ 3 fold	–
CC(C1CC1)n1cnc2c(NCc3cccc(C(F)(F)F)c3)nc(NCCN(C)C)nc21 (stereo not shown) [7b, 9-(1-Cyclopropylethyl)-N2-(2-(dimethylamino)ethyl)-N6-(3-(trifluoromethyl)benzyl)-9H-purine-2,6-diamine]	–	~ 10 fold	number of kinases among 374 kinases inhibited by more than 50% (374 kinases): 9
CC(C1CC1)n1cnc2c(NCc3cccc(C(F)(F)F)c3)ncnc21 (stereo not shown) [7a]	–	~ 3 fold	–
Nc1nccc(-c2c(-c3ccc(F)cc3)ncn2C2CCCCC2)n1 [PF-670462]	–	–	period change in vivo (in words) (mouse behavioral rhythms [2]): only small period change in vivo
CC(C)n1cnc2c(NCc3cccc(C(F)(F)F)c3)nc(N3CCC(O)CC3)nc21 [6d, 1-(9-Isopropyl-6-((3-(trifluoromethyl)benzyl)amino)-9H-purin-2-yl)piperidin-4-ol]	decreased activity	–	–
CC(C)n1cnc2c(NCc3cccc(C(F)(F)F)c3)ncnc21 [longdaysin]	–	–	period lengthening of circadian behavior (mouse behavioral rhythms [3]): about 0.05 h; compound concentration for 1 h period lengthening (Bmal1-dLuc U2OS cells [4]): 0.3 µM; fold more potent than benipurine (1 h period lengthening) (Bmal1-dLuc U2OS cells [1]; relative to benipurine): 3 fold
CC(C1CC1)n1cnc2c(OCc3cccc(C(F)(F)F)c3)nc(NCCN(C)C)nc21 (stereo not shown) [7d, N1-(9-(1-Cyclopropylethyl)-6-((3-(trifluoromethyl)benzyl)oxy)-9H-purin-2-yl)-N2,N2-dimethylethane-1,2-diamine]	dramatic decrease in the period lengthening activity	–	–
CC(C)n1cnc2c(NCc3cccc(C(F)(F)F)c3)nc(NCCN)nc21 [6k, N2-(2-Aminoethyl)-9-isopropyl-N6-(3-(trifluoromethyl)benzyl)-9H-purine-2,6-diamine]	much less activity compared to 6a	–	–
CC(C1CC1)n1cnc2c(N(C)Cc3cccc(C(F)(F)F)c3)nc(NCCN(C)C)nc21 (stereo not shown) [7c, 9-(1-Cyclopropylethyl)-N2-(2-(dimethylamino)ethyl)-N6-methyl-N6-(3-(trifluoromethyl)benzyl)-9H-purine-2,6-diamine]	dramatic decrease in the period lengthening activity	–	–
